According to ChEMBL document CHEMBL4368924, “Synthesis and biological evaluation of nitroxide labeled pyrimidines as Aurora kinase inhibitors” (Bioorg Med Chem Lett, 2019):
The source made the active and inactive calls. No cut-off for these calls is given here.

Experiments:
LoVo = experiment: Antiproliferative activity against human LoVo cells after 48 hrs by MTT assay; type: functional, cell-based
HepG2 = experiment: Antiproliferative activity against human HepG2 cells after 48 hrs by MTT assay; type: functional, cell-based
A549 = experiment: Antiproliferative activity against human A549 cells after 48 hrs by MTT assay; type: functional, cell-based
HeLa [1] = experiment: Antiproliferative activity against human HeLa cells after 48 hrs by MTT assay; type: functional, cell-based
[2] = molecular target: Activin receptor type-1-like (Homo sapiens) (UniProt P37023); experiment: Inhibition of ALK1 (unknown origin) using Kemptide as substrate at 1 uM after 60 mins by ADP-Glo luminescence assay relative to control
Aurora kinase B [3] = molecular target: T1, Aurora kinase B (Homo sapiens, UniProt Q96GD4); experiment: Inhibition of aurora B in human HeLa cells assessed as decrease in HisH3 phosphorylation at ser10 residues after 24 hrs by Western blot analysis; type: cell-based
[4] = molecular target: T2, Aurora kinase A (Homo sapiens) (UniProt O14965); experiment: Inhibition of aurora A (unknown origin) using Kemptide as substrate at 1 uM after 60 mins by ADP-Glo luminescence assay relative to control
T2 sequence (whole entry): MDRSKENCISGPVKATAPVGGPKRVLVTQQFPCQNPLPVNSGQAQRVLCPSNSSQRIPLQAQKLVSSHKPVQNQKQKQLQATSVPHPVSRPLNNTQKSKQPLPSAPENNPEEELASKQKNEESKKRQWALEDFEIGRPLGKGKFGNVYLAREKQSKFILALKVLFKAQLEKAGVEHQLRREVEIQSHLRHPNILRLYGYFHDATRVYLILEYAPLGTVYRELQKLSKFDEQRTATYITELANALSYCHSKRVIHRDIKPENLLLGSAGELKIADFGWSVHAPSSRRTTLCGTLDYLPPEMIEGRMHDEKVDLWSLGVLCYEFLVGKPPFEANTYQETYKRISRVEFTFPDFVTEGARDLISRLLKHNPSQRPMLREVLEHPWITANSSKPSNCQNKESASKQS

[5] = molecular target: T2, Aurora kinase A (Homo sapiens); experiment: Inhibition of aurora A phosphorylation at Thr288 residues in human HeLa cells after 24 hrs by immunofluorescence assay; type: cell-based
Aurora kinase B [6] = molecular target: T1, Aurora kinase B; experiment: Inhibition of aurora B phosphorylation at Thr232 residues in human HeLa cells after 24 hrs by immunofluorescence assay; type: cell-based
Aurora kinase B [7] = molecular target: T1, Aurora kinase B; experiment: Inhibition of aurora B (unknown origin) using Kemptide as substrate at 1 uM after 60 mins by ADP-Glo luminescence assay relative to control
[8] = molecular target: T2, Aurora kinase A (Homo sapiens); experiment: Inhibition of aurora A in human HeLa cells assessed as decrease in Eg5 level after 24 hrs by Western blot analysis; type: cell-based
Homo sapiens = organism: Homo sapiens; experiment: Inhibition of PI3K (unknown origin) using Kemptide as substrate at 1 uM after 60 mins by ADP-Glo luminescence assay relative to control
[9] = molecular target: T2, Aurora kinase A (Homo sapiens); experiment: Inhibition of aurora A in human HeLa cells assessed as decrease in TPX2 level after 24 hrs by Western blot analysis; type: cell-based
[10] = molecular target: T2, Aurora kinase A (Homo sapiens); experiment: Inhibition of aurora A in human HeLa cells assessed as decrease in Bora level after 24 hrs by Western blot analysis; type: cell-based
[11] = molecular target: RAC-alpha serine/threonine-protein kinase (Homo sapiens) (UniProt P31749); experiment: Inhibition of AKT (unknown origin) using Kemptide as substrate at 1 uM after 60 mins by ADP-Glo luminescence assay relative to control
[12] = molecular target: Vascular endothelial growth factor receptor 2 (Homo sapiens) (UniProt P35968); experiment: Inhibition of VEGFR2 (unknown origin) using Kemptide as substrate at 1 uM after 60 mins by ADP-Glo luminescence assay relative to control
Aurora kinase B [13] = molecular target: T1, Aurora kinase B; experiment: Inhibition of aurora B (unknown origin) using Kemptide as substrate after 60 mins by ADP-Glo luminescence assay
Aurora kinase A = molecular target: T3, Aurora kinase A (Homo sapiens, UniProt O14965); experiment: Inhibition of aurora A (unknown origin) using Kemptide as substrate after 60 mins by ADP-Glo luminescence assay
T3 sequence (O14965 whole entry): T2 sequence (whole entry)

HeLa [14] = experiment: Induction of morphological changes in human HeLa cells assessed as disrupting mitotic spindle formation at 5 uM after 24 hrs by DAPI-staining based immunofluorescence assay; type: functional, cell-based

T1 sequence (Q96GD4 whole entry): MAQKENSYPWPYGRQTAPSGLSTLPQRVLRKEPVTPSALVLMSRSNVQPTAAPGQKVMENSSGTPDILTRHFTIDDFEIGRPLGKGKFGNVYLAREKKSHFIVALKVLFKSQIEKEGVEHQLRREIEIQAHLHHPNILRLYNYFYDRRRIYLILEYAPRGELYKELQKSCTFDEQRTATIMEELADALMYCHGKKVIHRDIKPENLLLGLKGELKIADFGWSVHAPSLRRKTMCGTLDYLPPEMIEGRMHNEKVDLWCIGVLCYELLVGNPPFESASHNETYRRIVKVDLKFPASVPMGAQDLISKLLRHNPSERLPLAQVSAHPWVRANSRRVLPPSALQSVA
RAC-alpha serine/threonine-protein kinase (Homo sapiens), sequence (P31749 whole entry): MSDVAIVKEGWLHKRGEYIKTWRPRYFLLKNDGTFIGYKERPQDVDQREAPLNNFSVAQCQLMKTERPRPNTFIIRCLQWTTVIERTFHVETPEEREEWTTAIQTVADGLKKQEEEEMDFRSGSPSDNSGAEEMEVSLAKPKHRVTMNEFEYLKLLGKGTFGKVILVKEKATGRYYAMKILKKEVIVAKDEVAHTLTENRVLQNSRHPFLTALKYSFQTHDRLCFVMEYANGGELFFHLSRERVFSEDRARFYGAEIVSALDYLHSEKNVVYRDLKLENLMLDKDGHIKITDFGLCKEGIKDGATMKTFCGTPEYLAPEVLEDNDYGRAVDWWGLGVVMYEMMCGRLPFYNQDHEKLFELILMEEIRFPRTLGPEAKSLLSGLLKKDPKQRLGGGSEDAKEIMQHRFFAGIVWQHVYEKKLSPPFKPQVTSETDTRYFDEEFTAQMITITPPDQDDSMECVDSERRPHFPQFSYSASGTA
Activin receptor type-1-like (Homo sapiens), sequence (P37023 whole entry): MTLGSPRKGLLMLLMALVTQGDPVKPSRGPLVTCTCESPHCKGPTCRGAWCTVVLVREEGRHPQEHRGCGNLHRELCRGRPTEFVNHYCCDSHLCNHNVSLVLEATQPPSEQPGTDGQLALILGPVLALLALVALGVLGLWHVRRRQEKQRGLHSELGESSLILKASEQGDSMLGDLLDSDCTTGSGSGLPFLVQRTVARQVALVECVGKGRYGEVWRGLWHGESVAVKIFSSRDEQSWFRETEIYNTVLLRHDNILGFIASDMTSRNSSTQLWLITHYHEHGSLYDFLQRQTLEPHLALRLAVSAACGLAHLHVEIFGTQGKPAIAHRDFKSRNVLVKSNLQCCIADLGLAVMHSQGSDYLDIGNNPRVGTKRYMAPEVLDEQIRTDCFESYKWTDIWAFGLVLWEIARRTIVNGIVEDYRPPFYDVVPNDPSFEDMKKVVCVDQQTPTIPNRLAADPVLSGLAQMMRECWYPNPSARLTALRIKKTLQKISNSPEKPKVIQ
Vascular endothelial growth factor receptor 2 (Homo sapiens), sequence (P35968 whole entry): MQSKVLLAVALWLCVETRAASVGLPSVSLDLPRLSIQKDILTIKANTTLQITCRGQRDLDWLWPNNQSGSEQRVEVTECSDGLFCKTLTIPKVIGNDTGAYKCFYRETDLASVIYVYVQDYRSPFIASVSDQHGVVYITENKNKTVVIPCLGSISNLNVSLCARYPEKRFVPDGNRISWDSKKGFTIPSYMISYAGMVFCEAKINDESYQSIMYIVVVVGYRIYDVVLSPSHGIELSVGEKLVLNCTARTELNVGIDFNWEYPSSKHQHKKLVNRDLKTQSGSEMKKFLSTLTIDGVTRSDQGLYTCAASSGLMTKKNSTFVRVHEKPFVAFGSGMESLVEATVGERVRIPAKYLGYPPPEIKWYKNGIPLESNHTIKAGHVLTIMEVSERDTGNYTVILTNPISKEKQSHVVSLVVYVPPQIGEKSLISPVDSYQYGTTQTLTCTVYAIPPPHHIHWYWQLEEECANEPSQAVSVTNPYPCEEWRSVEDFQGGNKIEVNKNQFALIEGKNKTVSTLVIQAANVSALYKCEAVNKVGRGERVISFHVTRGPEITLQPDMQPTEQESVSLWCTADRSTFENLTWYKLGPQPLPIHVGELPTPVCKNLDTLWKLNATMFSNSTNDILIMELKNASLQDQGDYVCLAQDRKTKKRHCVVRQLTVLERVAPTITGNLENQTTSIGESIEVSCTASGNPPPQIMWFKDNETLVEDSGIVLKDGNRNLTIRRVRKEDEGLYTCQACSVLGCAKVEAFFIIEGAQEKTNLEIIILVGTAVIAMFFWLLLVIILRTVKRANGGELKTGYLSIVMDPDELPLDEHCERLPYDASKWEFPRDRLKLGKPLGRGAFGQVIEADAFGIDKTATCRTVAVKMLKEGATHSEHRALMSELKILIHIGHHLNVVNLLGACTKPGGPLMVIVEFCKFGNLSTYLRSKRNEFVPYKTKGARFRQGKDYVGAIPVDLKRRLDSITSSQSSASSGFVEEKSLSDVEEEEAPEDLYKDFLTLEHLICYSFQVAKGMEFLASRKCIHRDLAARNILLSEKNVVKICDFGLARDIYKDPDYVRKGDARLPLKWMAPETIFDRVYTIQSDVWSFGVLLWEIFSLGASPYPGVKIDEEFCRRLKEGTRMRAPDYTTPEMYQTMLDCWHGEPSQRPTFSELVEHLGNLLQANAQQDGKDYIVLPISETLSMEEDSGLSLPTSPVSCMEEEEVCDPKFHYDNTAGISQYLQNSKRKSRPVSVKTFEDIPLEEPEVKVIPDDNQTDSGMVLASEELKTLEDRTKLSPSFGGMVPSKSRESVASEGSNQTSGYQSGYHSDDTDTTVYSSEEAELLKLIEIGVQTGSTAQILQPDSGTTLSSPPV

SMILES | IC50 (LoVo; lovo) | IC50 (HepG2; hepg2) | IC50 (A549; a549) | IC50 (HeLa [1]; hela) | other results
CCOC(=O)Cc1csc(Nc2nc(Nc3ccc(C(=O)NC4CC(C)(C)N([O])C(C)(C)C4)cc3)ncc2[N+](=O)[O-])n1 | 27 µM | 26.4 µM | 1.04 µM | 12 µM | 
CCCCOC(=O)Cc1cc(Nc2nc(Nc3ccc(C(=O)NC4CC(C)(C)N([O])C(C)(C)C4)cc3)ncc2F)n[nH]1 |  |  |  |  | IC50 (LoVo; Homo sapiens, LoVo, 48 h): 11.4 µM; inhibition [2]: 33.5%; inhibition (Aurora kinase B [3]): Dose-dependent effect; inhibition [4]: 84.5%; inhibition [5]: Dose-dependent effect; IC50 (HepG2; Homo sapiens, HepG2, 48 h): 5.73 µM; inhibition (Aurora kinase B [6]): Dose-dependent effect; inhibition (Aurora kinase B [7]): 90.5%; inhibition [8]: Dose-dependent effect; inhibition (Homo sapiens): 7%; inhibition [9]: Dose-dependent effect; IC50 (A549; Homo sapiens, A549, 48 h): 0.89 µM; IC50 (HeLa [1]; Homo sapiens, HeLa, 48 h): 2.72 µM; inhibition [10]: Dose-dependent effect; inhibition [11]: 0%; inhibition [12]: 35.5%; IC50 (Aurora kinase B [13]): 0.0028 µM; IC50 (Aurora kinase A): 0.0093 µM; Activity (HeLa [14]): Active
CC1(C)CC(NC(=O)c2ccc(Nc3ncc(F)c(NCCCNc4ccc([N+](=O)[O-])cc4)n3)cc2)CC(C)(C)N1[O] | 53.6 µM | 19.8 µM | 12.4 µM | 31.7 µM | 
CC1(C)CC(NC(=O)c2ccc(Nc3ncc([N+](=O)[O-])c(N4CCN(c5ccc(F)cc5)CC4)n3)cc2)CC(C)(C)N1[O] | 27.8 µM | 13.1 µM | 10.2 µM | 25.3 µM | 
Cc1cc(Nc2nc(Nc3ccc(C(=O)NC4CC(C)(C)N([O])C(C)(C)C4)cc3)ncc2F)no1 |  |  |  |  | IC50 (LoVo; Homo sapiens, LoVo, 48 h): 12 µM; inhibition [2]: 39%; inhibition [4]: 69%; IC50 (HepG2; Homo sapiens, HepG2, 48 h): 10.8 µM; inhibition (Aurora kinase B [7]): 76.5%; inhibition (Homo sapiens): 18%; IC50 (A549; Homo sapiens, A549, 48 h): 0.88 µM; IC50 (HeLa [1]; Homo sapiens, HeLa, 48 h): 5.68 µM; inhibition [11]: 0%; inhibition [12]: 57%; IC50 (Aurora kinase B [13]): 0.0173 µM; IC50 (Aurora kinase A): 0.0201 µM
CCCCOC(=O)Cc1csc(Nc2nc(Nc3ccc(C(=O)NC4CC(C)(C)N([O])C(C)(C)C4)cc3)ncc2F)n1 | 21.9 µM | 11.5 µM | 2.31 µM | 5.23 µM | 
Cc1cc(Nc2nc(Nc3ccc(C(=O)NC4CC(C)(C)N([O])C(C)(C)C4)cc3)ncc2[N+](=O)[O-])n[nH]1 | > 100 µM | 37.5 µM | 15.3 µM | 29.1 µM | 
CC1(C)CC(NC(=O)c2ccc(Nc3ncc(F)c(N4CCOCC4)n3)cc2)CC(C)(C)N1[O] | 35.5 µM | 22.6 µM | 13.2 µM | 14.3 µM | 
CC(C)OC(=O)Cc1csc(Nc2nc(Nc3ccc(C(=O)NC4CC(C)(C)N([O])C(C)(C)C4)cc3)ncc2F)n1 | 11.9 µM | 13.4 µM | 3.42 µM | 11.2 µM | 
CCN1CCN(c2nc(Nc3ccc(C(=O)NC4CC(C)(C)N([O])C(C)(C)C4)cc3)ncc2[N+](=O)[O-])CC1 | 39.7 µM | 56.8 µM | 1.96 µM | 17.5 µM | 
Cc1cc(Nc2nc(Nc3ccc(C(=O)NC4CC(C)(C)N([O])C(C)(C)C4)cc3)ncc2[N+](=O)[O-])no1 | 26.8 µM | 7.36 µM | 1.14 µM | 7.36 µM | 
Cc1cc(Nc2nc(Nc3ccc(C(=O)NC4CC(C)(C)N([O])C(C)(C)C4)cc3)ncc2F)n[nH]1 | 42.2 µM | 10.8 µM | 2.12 µM | 11.2 µM | 
CCOC(=O)c1csc(Nc2nc(Nc3ccc(C(=O)NC4CC(C)(C)N([O])C(C)(C)C4)cc3)ncc2[N+](=O)[O-])n1 | 12.5 µM | 6.87 µM | 0.74 µM | 3.79 µM | 
Cc1cc(Nc2cc(N3CCN(C)CC3)nc(Sc3ccc(NC(=O)C4CC4)cc3)n2)n[nH]1 [TOZASERTIB] |  |  |  |  | IC50 (LoVo; Homo sapiens, LoVo, 48 h): 45.3 µM; IC50 (HepG2; Homo sapiens, HepG2, 48 h): 53.3 µM; IC50 (A549; Homo sapiens, A549, 48 h): 35.8 µM; IC50 (HeLa [1]; Homo sapiens, HeLa, 48 h): 46.2 µM
CC1(C)CC(NC(=O)c2ccc(Nc3ncc([N+](=O)[O-])c(NC4CCCC4)n3)cc2)CC(C)(C)N1[O] | 41.2 µM | 28.7 µM | 33.2 µM | 55.6 µM | 
